One compound from EP0642343B1, “Acridine carboxamides for the treatment of cancer” (XENOVA LIMITED, priority 1992, dated 1993) can be followed below.

Like-named read-outs stand apart in the source and are kept apart here.

Data set [1] deals with other human leukaemia cell lines. Briefly: Growth inhibition of leukaemia lines, continuous exposure, MTT staining. The data set is classed as cell-based. The note with it: range over other human leukaemia cell lines. The method, then: Tumour cell lines were cultured in 96-well plates. […] Primary cultures were incubated at 37°C in sealed perspex boxes containing a humidified atmosphere of 5% CO2 and 5% O2 in nitrogen for 7 days. 5-Methyl-[^3H]-thymidine (20 Ci.mmol^-1; 0.04 µCi per well), thymidine and 5-fluorodeoxyuridine (each at final concentrations of 0.5 µM) were added in medium to cultures (20 µl per well) 24 h before terminating the cultures.
1989, 81:1088-1092, where growth, as indicated by staining or thymidine incorporation, corresponded to 50% of that of the control cultures.
The effect of DACA on the growth of cultured cells was assessed by continuous drug exposure. […] These values were similar to those of other human leukaemia cell lines, which ranged from 290 to 760 nM (CEM-CCRF, 410 nM; MOLT-4, 290 nM; Daudi, 400 nM; Raji, 370 nM, U937, 590 nM; HL-60, 620 nM; K-562, 760 nM). Four multidrug-resistant cell lines, developed from JL and JB1 by in vitro exposure to increasing concentrations of doxorubicin (LD and B1D) or amsacrine (LA and B1A) (Finlay G.J., et al., J. Natl. Cancer Inst. 1990, 82, 662-667, Snow K., et al., Br. J. Cancer 1991, 63, 17-28) were tested.

Data set [2] can be described thus: Pharmacokinetic and tissue distribution studies (tritium label, HPLC). The data set is classed as in vivo. To be noted: for tissue concentration: 1 h after intraperitoneal 400 µmol/kg, HPLC; for AUC: ip, 400 umol/kg, intraperitoneal 400 µmol/kg. The source says:
We believe that administration of DACA at the new divided dose-high constituent dose frequency regime mentioned above will be helpful in combating brain tumours.

For data set [3], the system named is human melanoma cell line designated WADH. In words: Tumour growth delay, human melanoma xenograft in nude mice. The data set is classed as in vivo, nude (athymic) mice. The note with it: tumours 4-7 mm; ip divided dose 2 x 100 mg/kg at 0 and 60 min, repeated after 7 days. The procedure: Colon 38 carcinoma was obtained from the Mason Research Institute (Worchester, MA, USA) and was grown in BDF1 hosts. Tumour fragments (1 mm^3) were implanted subcutaneously in anaesthetised mice. Tumours had grown to the appropriate size 9 days after implantation. A melanoma tumour line (WADH) was developed in the Cancer Research Laboratory. Tumour cells were grown in culture and 1 x 10^6 cells were implanted intradermally into the flank of nude (C57BI/J genetic background) mice. Mice were grown under sterile surroundings until tumours were of appropriate size.
Tumours were measured 3x (colon 38) or 2x (xeno-graft) weekly with callipers and tumour volumes calculated as 0.52a^2b, where a and b were the minor and major tumour axes. Tumour growth delays were measured at a time when tumour volumes of treated and control animals had increased by 4-fold.
A further experiment was carried out using human melanoma line, implanted subcutaneously in nude (athymic) mice using an inoculation of one million cells of a human melanoma cell line designated WADH. Treatment was started when the tumours were 4-7 mm in diameter. DACA was administered ip as a divided dose (2 x 100 mg/kg body weight at 0 and 60 min) and a second similar administra-tion (2 x 100 mg/kg) was given after 7 days. A growth delay of 30 days was obtained (Figure 6).
(In general: Xenograft models place foreign cells or tissue in a host animal.)

Data set [4] relates to P388 murine leukaemia (P/ACTD). In words: Sensitivity of multidrug resistant P388 subline in vitro. To be noted: P-glycoprotein positive multidrug resistant subline. The data set is classed as cell-based. The procedure:
(§1) A multidrug resistant subline of P388 murine leukaemia (P/ACTD) was tested for sensitivity to DACA. This line was cross-resistant to actinomycin D, doxo-rubicin, mitoxantrone, etoposide and vincristine. Its resistance to vincristine was overcome by the presence of verapamil (10 µM). It stained for the presence of P-glycoprotein, consistent with the presence of transport-mediated multidrug resistance.

In data set [5] the test system is P388 murine leukaemia (P/ACTD). In words: Sensitivity of multidrug resistant P388 subline in vivo. The procedure:
as §1

The subject of data set [6] is panel of cell lines encompassing a number of tumour types. Briefly: NCI cell line panel, growth inhibition by protein staining. The note with it: data provided by the National Cancer Institute. The data set is classed as cell-based. The procedure:
Tumour cell lines were cultured in 96-well plates. Growth of NCI cell lines was assessed using sulpho-rhodamine B staining (Skehan P., et al., J. Natl. Cancer Inst. 1990, 82, 1107-1112), that of the leukaemia lines with (4,5-dimethylthiazole-2-yl)-2,5-diphenyltetrazolium (MTT) staining (Mosmann T., J. Immun. Methods 1983, 65, 55-63) and that of the primary human tumour material by ^3H-thymidine incorporation (Marshall E.S., et al., J. Natl. Cancer Inst. 1992, 84, 341-344). Primary tumour material was cultured in 96-well plates in which the wells were coated with agarose to inhibit selectively the growth of normal cells. (Marshall E.S., et al., J. Natl. Cancer Inst. 1992, 84, 341-344). Primary cultures were incubated at 37°C in sealed perspex boxes containing a humidified atmosphere of 5% CO2 and 5% O2 in nitrogen for 7 days. 5-Methyl-[^3H]-thymidine (20 Ci.mmol^-1; 0.04 µCi per well), thymidine and 5-fluorodeoxyuridine (each at final concentrations of 0.5 µM) were added in medium to cultures (20 µl per well) 24 h before terminating the cultures. Cells were aspirated on to glass fibre filters using a multiple automated sample harvester (LKB Wallac OY Beta Harvester). The filter discs were washed for 15 seconds with water, dried, and the amount of tritium retained quantified by liquid scintillation.
IC50 values were defined as in Paull K.D., et al., J. Natl. Cancer Inst. 1989, 81:1088-1092, where growth, as indicated by staining or thymidine incorporation, corresponded to 50% of that of the control cultures. […] Variances of DELTA values were expressed as standard deviations in log10 units. Comparison of DELTA values was made using Pearson correlation coefficients. Resistance factors were defined as the ratios of IC50 values between the resistant line and the parent line. Statistical evaluation was performed either with NCI programmes, with RS/1 software (BBN Research Systems, Cambridge, MA, USA), or with Sigmaplot (Jandel Scientific, San Rafael, CA, USA).

Data set [7] concerns a variety of human and mouse cell lines and in a panel of 60 human cell lines. Briefly: Cytotoxicity under continuous drug exposure (growth inhibition). The class given is cell-based. To be noted: continuous drug exposure over approx. 5 cell doubling times; range over the cell lines. The method, then: The latter value compared with 2 µM for the 4-pyridyl-quinoline analogue, 0.76 µM for amsacrine, 0.1 µM for the amsacrine analogue 4'-(9-[4-[N-methylcarboxamido]-5-methyl]-acridinylamino)-methanesulphon-m-anisidide ("CI-921") and 81 µM for etoposide.

`CN(C)CCNC(=O)c1cccc2cc3ccccc3nc12` [DACA, N-[2-(dimethylamino)ethyl]acridine-4-carboxamide]: the IC50 (as a rule, the concentration that inhibits the measured activity by half) in data set [1] was 290 to 760 nM; in data set [6] it was 2100 nM; in data set [7], 90 to 3400 nM. Also, the tissue concentration came to 45 µmol/kg in data set [2] (brain), 57 µmol/kg in data set [2] (heart), 139 µmol/kg in data set [2] (kidney) and 185 µmol/kg in data set [2] (liver). In addition, the exposure (AUC) (commonly concentration integrated over time) in data set [2] (brain, read-out: AUC) was found to be 218 µM·h; in data set [2] (heart, read-out: AUC), 147 µM·h; in data set [2] (kidney, read-out: AUC), 492 µM·h; in data set [2] (liver, read-out: AUC), 547 µM·h; in data set [2] (plasma, read-out: plasma AUC), 26.6 µM·h. Moreover, the “elimination t1/2” value in data set [2] (tritium-labelled DACA, tissues including brain) was in the range of 37 to 176 h. The compound further yielded a Growth delay in data set [3] of 30 days. Moreover, the “sensitivity of P/ACTD line” value in data set [4] and in data set [5] was “sensitive” throughout.
